Laboratory results: patent US20060116390A1, “Hepatitis c virus inhibitors” (priority 2003, published 2006)
Like-named read-outs stand apart in the source and are kept apart here.

Test system: HCV proteins in Rep5.1 cells (replicon cell line)
Test: Inhibitory activity of HCV: cell-based ELISA in replicon cell line Rep5.1 (decrease of HCV proteins)
Set-up: species or system hepatitis C virus
Details: Hepatitis C virus, 72 h, Rep5.1 cells, 72 hours with drug
Method in brief: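 Rep5.1 replicon cells (5000/well, DMEM-10 with 500 μg/ml G418) were given serially diluted drug 4 h after seeding. After 72 h, cells were fixed in methanol/acetone and HCV proteins detected by cell-based ELISA using replicon-specific patient plasma antibodies. IC50 is the concentration giving 50% protein decrease versus the no-drug control.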

[1] = concentration at which 50% of HCV proteins was decreased, Table 2, read-out: IC50
[2] = decrease of HCV proteins measured by HCV antibody, Table 1, read-out: Level (IC50 values classified)

`CC1=C(C(=O)OCCCCCC(=O)O)CNC(=S)N1` [18′, 6-methyl-2-thioxo-1,2,3,4-tetrahydro-pyrimidine-5-carboxylic acid 5-carboxy-pentyl ester] was tested, and the IC50 [1] was greater than 100 µM and the IC50 [2] was greater than 20 µM.
`COCC1=C(C(=O)OCc2ccccc2)CNC(=S)N1` [Compound 64, 6-methoxymethyl-2-thioxo-1,2,3,4-tetrahydro-pyrimidine-5-carboxylic acid benzyl ester] was tested, and the IC50 [1] was 15 µM and the IC50 [2] was 10 to 20 µM.
